# From patent US20250268901A1, “CRYSTAL FORM OF AZETIDINE-SUBSTITUTED COMPOUND” (MEDSHINE DISCOVERY INC., priority 2020, published 2025)
# Key:
# A427 cells = assay: Cell proliferation assay (CellTiter-Glo), A427; format: cell-based, Human
# Description: (§1) The effect of the compound on cell proliferation was examined on NC-H358, MA-PA-CA-2, A375, SW1463, and A427 cells.
# Medium for A427 cell line: 89% EMEM medium+10% fetal bovine serum+1% P/S
# (§2) • 1. The medium and pancreatin used in the process of cell passaging were pre-heated in a water bath at 37° C. • 2. The cells were rinsed with pancreatin and digested with pancreatin until the cells were detached. A culture solution was added, and the cells and the culture solution were well mixed to stop the digestion. • 3. The cells were pipetted into a 15 mL centrifuge tube, 0.01 mL of cell suspension was pipetted onto a count plate, and cells were counted. • 4. According to the cell densities shown in the table below, a proper amount of each type of cells was transferred to a 15 mL centrifuge tube and made up to a volume of 9 mL with a corresponding cell culture solution.
# • 5. […]
# (§3) • 1. On the day of compound treatment, the day-0 test plate was removed from the incubator, 50 µL of Cell Titer Glo was added, and the plate was centrifuged at 1000 rpm for 10 s, shaken at room temperature for 10 min, then centrifuged again at 1000 rpm for 10 s, and read on Envision. • 2. […] To each well of the 96-well plates, 50 µL of Cell Titer-Glo was added, and the plates were centrifuged at 1000 rpm for 10 s, shaken at room temperature for 10 min, then centrifuged again at 1000 rpm for 10 s, and read on Envision. • 3. […]
# SW1463 cells = assay: Cell proliferation assay (CellTiter-Glo), SW1463; format: cell-based, Human
# Description: as §1
# Medium for SW1463 cell line: 89% Leibovit2 sL-15 medium+10% fetal bovine serum+1% P/S
# as §2, with “According to the cell densities shown in the table below, a proper amount of each type of cells was transferred to a 15 mL centrifuge tube and made up to a volume of 9 mL with a corresponding cell culture solution.” left out
# as §3
# A375 cells = assay: Cell proliferation assay (CellTiter-Glo), A375; format: cell-based, Human
# Description: as §1
# Medium for A375 cell line: 89% DMEM medium+10% fetal bovine serum+1% P/S
# as §2
# • 5. […]
# as §3
# MIA-PA-CA-2 cells = assay: Cell proliferation assay (CellTiter-Glo), MIA-PA-CA-2; format: cell-based, Human
# Description: as §1
# Medium for MIA-PA-CA-2 cell line: 86.5% DMEM medium+10% fetal bovine serum+2.5% horse serum+1% P/S
# as §2, with “According to the cell densities shown in the table below, a proper amount of each type of cells was transferred to a 15 mL centrifuge tube and made up to a volume of 9 mL with a corresponding cell culture solution.” left out
# as §3
# NCI-H358 cells = assay: Cell proliferation assay (CellTiter-Glo), NCI-H358; format: cell-based, Human
# Description: as §1
# Medium for H358 cell line: 89% RPMI1640 medium+10% fetal bovine serum+1% P/S
# as §2
# • 5. […]
# as §3
# [1] = Solid stability of crystal form (XRPD and HPLC); format: physicochemical
# Description: The purity and solubility of a sample are determined through a high performance liquid chromatograph Agilent 1260 HPLC.
# To evaluate the solid stability of crystal form C of the compound of formula (I), crystal form C of the compound of formula (I) was subjected to stability testing under affecting factor conditions (high temperature, high humidity, and light), 60° C./75% RH conditions, and 40° C./75% RH conditions. Crystal form C was placed under a high-temperature condition (60° C., closed) and a high-humidity condition (92.5% RH, wrapped in a sealing film, with 5 small holes made) for 1 week and 2 weeks, placed in a closed container in visible light and ultraviolet light (a light-shielding control group was set at the same time, and the sample was wrapped in tinfoil) according to the ICH conditions (visible light illumination reached 1.2E+06 Lux hrs, and ultraviolet light illumination reached 200 W·hrs/m2), and meanwhile placed under 60° C./75% RH conditions (wrapped in a sealing film, with 5 small holes made) for 1 month and 2 months and under 40° C./75% RH conditions (wrapped in a sealing film, with 5 small holes made) for 1 month, 2 months, and 3 months. All the stability samples were tested for crystal form change by XRPD analysis and were analyzed by HPLC.
# [2] = Pressure stability of crystal form (hydraulic press, XRPD); format: physicochemical
# Description: The Hydraulic press experiment is carried out on an SYP-5BS manual press, and the pressure put on to the sample is about 350 MPa.
# Crystal form C of the compound of formula (I) was added to a circular mold (6 mm in diameter) and pressurized to about 350 MPa. A small piece of the sheet-like sample was directly taken for XRPD analysis.
# [3] = tested on: pancreatic cancer MIA-Paca2 cell; settings: subcutaneous xenograft tumor model of pancreatic cancer MIA-Paca2 cell; cited from earlier work
# KRAS G12C = settings: cited from earlier work
# [4] = Light-shielding control group, simultaneously with visible + ultraviolet
# [5] = Visible + ultraviolet (ICH conditions), 1.2E+06 Lux · hrs, 300 W · hrs/m^2
compound,measurement,setting,value
C=CC(=O)N1CCN(c2nc(N3CC(N(CC)CC)C3)nc3c(=O)n(-c4c(N)c(Cl)cc(Cl)c4F)c(C(F)(F)F)cc23)CC1 [Compound of formula (I)],IC50,"A427 cells; Homo sapiens, A-427, A427, 72 h incubation, CellTiter-Glo",> 6980 nM
same,activity on cell,A427 cells; human lung cancer cell A427,weak activity
same,IC50,"SW1463 cells; Homo sapiens, SW1463, 144 h incubation, CellTiter-Glo",112 ± 32.7 nM
same,inhibitory activity against proliferation,SW1463 cells; human rectal adenocarcinoma cell SW1463,good inhibitory activity
same,IC50,"A375 cells; Homo sapiens, A-375, A375, 72 h incubation, CellTiter-Glo",4640 ± 89.8 nM
same,activity on cell,A375 cells; melanoma cell A375,weak activity
same,IC50,"MIA-PA-CA-2 cells; Homo sapiens, MIA PaCa-2, MIA-PA-CA-2, 72 h incubation, CellTiter-Glo",34 ± 7.03 nM
same,inhibitory activity against proliferation,MIA-PA-CA-2 cells; pancreatic cancer cell MIA-PA-CA-2,good inhibitory activity
same,IC50,"NCI-H358 cells; Homo sapiens, NCI-H358, 120 h incubation, CellTiter-Glo",13 ± 1.85 nM
same,inhibitory activity against proliferation,NCI-H358 cells; human non-small cell lung cancer cell NCI-H358,good inhibitory activity
C=CC(=O)N1CCN(c2nc(N3CC(N(CC)CC)C3)nc3c(=O)n(-c4c(N)c(Cl)cc(Cl)c4F)c(C(F)(F)F)cc23)CC1 [crystal form C],Crystal form change,"[1]; 40° C./75% RH, 1 month",Unchanged
same,Purity (%),"[1]; 40° C./75% RH, 1 month",98.00%
same,Relative purity,"[1]; 40° C./75% RH, 1 month",100.2%
same,Crystal form change,"[1]; 40° C./75% RH, 2 months",Unchanged
same,Purity (%),"[1]; 40° C./75% RH, 2 months",97.92%
same,Relative purity,"[1]; 40° C./75% RH, 2 months",100.1%
same,Crystal form change,"[1]; 40° C./75% RH, 3 months",Unchanged
same,Purity (%),"[1]; 40° C./75% RH, 3 months",98.02%
same,Relative purity,"[1]; 40° C./75% RH, 3 months",100.2%
same,Crystal form change,"[1]; 60° C., closed, 1 week",Unchanged
same,Purity (%),"[1]; 60° C., closed, 1 week",97.99%
same,Relative purity,"[1]; 60° C., closed, 1 week",100.1%
same,Crystal form change,"[1]; 60° C., closed, 2 weeks",Unchanged
same,Purity (%),"[1]; 60° C., closed, 2 weeks",97.98%
same,Relative purity,"[1]; 60° C., closed, 2 weeks",100.1%
same,Crystal form change,"[1]; 60° C./75% RH, 1 month",Unchanged
same,Purity (%),"[1]; 60° C./75% RH, 1 month",97.92%
same,Relative purity,"[1]; 60° C./75% RH, 1 month",100.1%
same,Crystal form change,"[1]; 60° C./75% RH, 2 months",Unchanged
same,Purity (%),"[1]; 60° C./75% RH, 2 months",97.98%
same,Relative purity,"[1]; 60° C./75% RH, 2 months",100.1%
same,Crystal form change,"[1]; 92.5% RH, 1 week",Unchanged
same,Purity (%),"[1]; 92.5% RH, 1 week",98.03%
same,Relative purity,"[1]; 92.5% RH, 1 week",100.2%
same,Crystal form change,"[1]; 92.5% RH, 2 weeks",Unchanged
same,Purity (%),"[1]; 92.5% RH, 2 weeks",98.00%
same,Relative purity,"[1]; 92.5% RH, 2 weeks",100.2%
same,Crystal form change,[1]; [4],Unchanged
same,Purity (%),[1]; [4],98.00%
same,Relative purity,[1]; [4],100.2%
same,Crystal form change,[1]; Starting sample,Unchanged
same,Purity (%),[1]; Starting sample,97.85%
same,Crystal form change,[1]; [5],Unchanged
same,Purity (%),[1]; [5],96.62%
same,Relative purity,[1]; [5],98.7%
same,solid stability (conclusion),"[1]; high temperature, high humidity, light, 60° C./75% RH, 40° C./75% RH",good solid stability
same,pressure stability (conclusion),[2]; about 350 MPa,good pressure stability
same,crystal form change after being pressed (XRPD),[2]; pressure of about 350 MPa,did not change
C=CC(=O)N1CCN(c2ncnc3c(F)c(-c4c(O)cccc4F)c(Cl)cc23)CC1 [ARS-1620],tumor growth inhibition,[3],can effectively inhibit tumor growth
same,cell antiproliferative activity at the cellular level,KRAS G12C,nM level
